From patent US12365651B2, “Use of pirfenidone and derivatives for modulation of B lymphocyte activity and organ protection from acute tissue damage” (Washington University, priority 2017, dated 2025)

Tested on: purified B lymphocytes harvested from the spleen
Experiment: CD86 on cultured purified splenic B lymphocytes
Assay type: cell-based, mouse
Source text: We next sought to determine whether the response of B cells to necrotic cytosolic extracts and LPS were cell autonomous, by repeating the above in vitro experiments in purified B lymphocytes harvested from the spleen. […] In contrast, necrotic cytosolic extracts induced a small, non-statistically significant (p=0.62) upregulation of CD19+ CD86high B cells when compared to diluent treated cells (FIG. 10G). Similar results were obtained in splenic B lymphocytes from TIRAP−/− animals (FIG. 10H).
Peritoneal derived inflammatory cells (PDICs) were harvested from the peritoneal cavity of thioglycolate-stimulated wild-type and TIRAP−/− deficient mice. PDIC cultures contain an admixture of inflammatory cells, including CD19+ B cells (40). TIRAP deficient mice were a gift from Dr. Ruslan Medzhitov (Yale University, New Haven, CT). PDICs were harvested on day 4 after i.p. injection of 1 ml of thioglycolate medium (Millipore, Billerica, MA, USA). Mice were euthanized, and the peritoneal cavity was washed 3-4 times with 3 mLs of Dulbecco's modified medium containing 10% fetal calf serum. A 3 mL syringe with an 18-gauge needle was used to inject the peritoneal cavity and retrieve the medium containing PDICs. Harvested cells were centrifuged at 250 g for 5 minutes, re-suspended in 5 mL of media and then filtered through a 40 μm strainer. […]

SMILES: Cc1ccc(=O)n(-c2ccccc2)c1 [Pirfenidone, 5 methyl-1-phenyl-2-[H] pyridone]
- LPS induced expression of CD86 on B cells (B lymphocytes from the spleen, 24 hours, LPS + 0.5% pirfenidone): significantly reduced
- LPS provoked increase in CD19+ CD86high cells (purified splenic B lymphocytes, wild type, LPS): partially sensitive to inhibition
